Earlier results in patent publication US20260374742A1, “METHODS OF PREPARING CARBAMATE DERIVATIVES” (NodThera Limited, priority 2022, published 2026).

System: NLRP3 inflammasome
Details: for inhibition of NLRP3 activation (in words): literature report

| Compound | inhibition of NLRP3 activation (in words) | concentrations at which NLRP3 activation is inhibited (in words) (literature, concentrations unlikely attainable in vivo) |
| --- | --- | --- |
| NC[C@@H]1O[C@H](c2ccccc2)Cc2c1ccc(O)c2O [A-68930] | impair NLRP3 activation |  |
| COc1ccc(Cl)cc1C(=O)NCCc1ccc(S(=O)(=O)NC(=O)NC2CCCCC2)cc1 [Glyburide] | specific inhibitor of NLRP3 activation | micromolar concentrations |
| O=[N+]([O-])C=Cc1ccc2c(c1)OCO2 [3,4-methylenedioxy-β-nitrostyrene] | impair NLRP3 activation |  |
| CC(C)(O)c1coc(S(=O)(=O)NC(=O)Nc2c3c(cc4c2CCC4)CCC3)c1 [CP-456,773] | specific inhibitor of NLRP3 activation |  |
| OC(CNCC(O)C1CCc2cc(F)ccc2O1)C1CCc2cc(F)ccc2O1 (stereo not shown) [nebivolol] | impair NLRP3 activation |  |
| C=C1C(=O)O[C@H]2[C@H]1CC/C(C)=C/CC[C@@]1(C)O[C@@H]21 [parthenolide] | impair NLRP3 activation |  |
| C[S+]([O-])CCCCN=C=S (stereo not shown) [sulforaphane] | suppress NLRP3 activation |  |
| O=c1c(O)c(-c2ccc(O)c(O)c2)oc2cc(O)cc(O)c12 [quercetin] | suppress NLRP3 activation |  |
| salvianolic acid | suppress NLRP3 activation |  |
| Cc1ccc(S(=O)(=O)/C=C/C#N)cc1 [Bay 11-7082] | impair NLRP3 activation |  |
| CNCCC(Oc1ccc(C(F)(F)F)cc1)c1ccccc1 (stereo not shown) [fluoxetine] | impair NLRP3 activation |  |
| OC[C@H]1O[C@@H](c2ccc(Cl)c(Cc3ccc(O[C@H]4CCOC4)cc3)c2)[C@H](O)[C@@H](O)[C@@H]1O [epigliflozin] | impair NLRP3 activation |  |
